Results from patent publication US8609091B2, “Method for endocytic presentation of an immunosuppressive for the treatment of type 1 diabetes” (The Curators of the University of Missouri, priority 2002, dated 2013).

Assays:
Type in all cases: cell-based, NOD mice
HEL-specific hybridoma = assay: Presentation to HEL-specific T cell hybridoma (IL-2 production); conditions: irradiated NOD splenocytes; peptides 10 μM, Ig-chimeras 1 μM; 24 hours
Experimental: T cell hybridomas: A HEL-specific T cell line was fused with the αβ TCR negative thymoma BW1100 (ATCC) using polyethylene glycol 4000 (Sigma, St. Louis, Mo.). Hybrids were then selected by supplementing the culture media with hypoxanthine-azaserine (Sigma). Resulting hybridomas were then screened for reactivity to HEL peptide by testing for production of IL-2 in the supernatant following stimulation with irradiated (3000 rads) splenocytes in the presence of 15 μg/ml HEL peptide. Positive hybridomas were then cloned by limiting dilution and used to assess presentation of HEL peptide and Ig-HEL chimera.
(§1) Presentation of Ig-INSβ chimera to specific T cells was then determined. […] For presentation of INSβ peptide and Ig-INSβ (FIGS. 2(a) and 2(b) respectively), the activation was assessed by [^3H] thymidine incorporation since the T cells were from a line. Accordingly, 1 μCi [^3H]thymidine per well was added during the last 14 hours of a 3-day incubation period and the cells were harvested, and the radioactivity counted. For presentation of HEL peptide (FIG. 2(c)) and Ig-HEL (FIG. 2(d)), T cell activation was assessed by measuring IL-2 production as the HEL-specific cells were from a hybridoma. Accordingly, after 24 hours incubation IL-2 was measured in 100 μl supernatant by ELISA. […]

[1] = system: INSβ-specific T cell line; assay: Presentation to INSβ-specific T cell line ([3H]thymidine proliferation); conditions: irradiated NOD splenic APCs; peptides 10 μM, Ig-chimeras 1 μM; 3-day incubation
Experimental: T cell lines: A T cell line specific for INSβ peptide was generated by immunizing NOD mice with 100 μg of INSβ peptide in 200 μl PBS/CFA (vol/vol) subcutaneously (“s.c.”) in the footpads and at the base of each limb. After 10 days, the draining lymph nodes were removed, and T cells were stimulated in vitro for 2 rounds in the presence of irradiated (3000 rads), syngenic splenocytes, 5% T-Stim supplement (Collaborative Biomedical Products, Bedford, Mass.), and INSβ peptide (25 μg/ml). […]
as §1

islet cells = assay: IFNγ response of islet cells from 14 week old mice; conditions: INSβ peptide 18 μM, Ig-INSβ chimeras 1 μM; 24 hours; no rIL-10
Experimental: (§2) Detection of IL-10 and IFNγ was performed according to BD Pharmingen's standard protocol. The capture Abs were as follows: rat anti-mouse IL-10, JES5-2A5 and rat anti-mouse IFNγ, R4-6A2. The biotinylated anti-cytokine Abs were as follows: rat anti-mouse IL-10, JES5-16E3 and rat anti-mouse IFNγ, XMG1.2. Both antibodies were purchased from BD Pharmingen (San Diego, Calif.). ELISA for the detection of active TGFβ was preformed using the human TGFβ1 DuoSet kit (R&D systems, Minneapolis, Minn.) according to the manufacturer's instructions. […] All assays were read on a SpectraMAX 190 counter. Graded amounts of recombinant mouse IFNγ, IL-10, and TGFβ were included in all experiments for construction of standard curves. The cytokine concentration in culture supernatants was interpolated from the linear portion of the standard curve.
Islet-infiltrating cells were derived from 14 week old female NOD mice by collagenase digestion as previously described (36). […] Viability of the cells was determined by trypan blue exclusion.
To test this premise, splenic and islet cells from 14 week old mice were stimulated with agg Ig-INSβ, which induces IL-10 production by the presenting APCs and secretion of IFNγ was measured. […]

Splenic cells = assay: IFNγ response of splenic cells from 14 week old mice; conditions: INSβ peptide 18 μM, Ig-INSβ chimeras 1 μM; 24 hours; no rIL-10
Experimental: as §2
To test this premise, splenic and islet cells from 14 week old mice were stimulated with agg Ig-INSβ, which induces IL-10 production by the presenting APCs and secretion of IFNγ was measured. Splenic (a) and islet (b) cells (5×10^5 cells/well) from 14 week old female NOD mice were stimulated with the indicated antigen in the presence or absence of 1 ng of rIL-10 for 24 hours. The supernatant (100 μl/well) was used to measure IFNγ by ELISA as indicated in “Materials and Methods”. […]

| Sequence | stimulation of HEL-specific hybridoma (IL-2 production) (HEL-specific hybridoma) | proliferation of the INSβ-specific T cell line [1] | IFNγ response of islet T cells (islet cells) | IFNγ response of splenic T cells (Splenic cells) |
| --- | --- | --- | --- | --- |
| AMKRHGLDNYRGYSL [HEL peptide] | able to stimulate the HEL-specific hybridoma | unable to induce proliferation | – | – |
| SHLVEALYLVCGERG [INSβ peptide] | – | proliferated significantly | developed IFNγ responses | developed IFNγ responses |
